Values of other authors, collected in US7741370B2, “Double salts of (−)-hydroxycitric acid and a process for preparing the same” (Laila Impex, priority 2004, dated 2010).

Columns and labels:
[1] = free acid form, forming a lactone; liquid form unstable during storage
[2] = prior-art salt (US 5,783,603), statement in words

stability [1]	hygroscopicity [2]	Compound
unstable	–	O=C(O)CC(O)(C(=O)O)C(O)C(=O)O (single isomer, unassigned; (-)) [(−)-hydroxycitric acid]
–	hygroscopic	potassium salt of HCA
